From patent US12091409B2, “Ether linked triazoles as NRF2 activators” (ASTEX THERAPEUTICS LIMITED, priority 2016, dated 2024)
pEC50: −log10 of the molar value. Structures can show the parent of a compound that is named as a salt.

test system: NQO1 specific enzyme activity in BEAS-2B cells (marker for NRF2 activation); assay: BEAS-2B NQO1 MTT Assay; assay type: cell-based; conditions: Homo sapiens, BEAS-2B, 48 h, NQO1 specific activity induction, 48 hours with compound
Procedure, shortened: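 Following 48 h compound treatment at 37° C., 5% CO2, cells were lysed and MTT cocktail added. Product formation was followed kinetically at 570 nm for 30 min. Rate (Delta OD/min) against log concentration was fitted with 3 parameters to give pEC50 for induction of NQO1 specific activity.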

Row | SMILES | pEC50
1 | CCn1cc(CO[C@H](c2ccc(C)c(CN3C[C@@H](C)Cc4ccccc4S3(=O)=O)c2)C(C)(C)C(=O)O)nn1 [Example 84] | > 9.00
2 | CC[C@H]1Cc2ccccc2S(=O)(=O)N(Cc2cc([C@@H](OCc3cn(CC)nn3)C(C)(C)C(=O)O)ccc2C)C1 [Example 85, (3R)-((1-ethyl-1H-1,2,3-triazol-4-yl)methoxy)-2,2-dimethyl-3-(4-methyl-3-(((S)-4-ethyl-1,1-dioxido-4,5-dihydrobenzo[f][1,2]thiazepin-2(3H)-yl)methyl)phenyl)propanoic acid] | > 9.00
3 | CCCn1cc(CO[C@H](c2ccc(C)c(CN3C[C@@H](C)Cc4ccc(C(F)(F)F)cc4S3(=O)=O)c2)C(C)(C)C(=O)O)nn1 [Example 86, (R)-2,2-dimethyl-3-(4-methyl-3-(((S)-4-methyl-1,1-dioxido-8-(trifluoromethyl)-4,5-dihydrobenzo[f][1,2]thiazepin-2(3H)-yl)methyl)phenyl)-3-((1-propyl-1H-1,2,3-triazol-4-yl)methoxy)propanoic acid] | > 9.00
4 | CCCn1cc(CO[C@H](c2ccc(C)c(CN3C[C@@H](C)Cc4ccc(F)cc4S3(=O)=O)c2)C(C)(C)C(=O)O)nn1 [Example 87, (R)-3-(3-(((S)-8-fluoro-4-methyl-1,1-dioxido-4,5-dihydrobenzo[f][1,2]thiazepin-2(3H)-yl)methyl)-4-methylphenyl)-2,2-dimethyl-3-((1-propyl-1H-1,2,3-triazol-4-yl)methoxy)propanoic acid] | > 9.00
5 | CCCn1cc(CO[C@H](c2ccc(C)c(CN3C[C@@H](C)Cc4ccccc4S3(=O)=O)c2)C(C)(C)C(=O)O)nn1 [Example 88, (R)-2,2-dimethyl-3-(4-methyl-3-(((S)-4-methyl-1,1-dioxido-4,5-dihydrobenzo[f][1,2]thiazepin-2(3H)-yl)methyl)phenyl)-3-((1-propyl-1H-1,2,3-triazol-4-yl)methoxy)propanoic acid] | > 9.00
6 | CCCn1cc(CO[C@H](c2ccc(C)c(CN3C[C@@H](C)Cc4ncccc4S3(=O)=O)c2)C(C)(C)C(=O)O)nn1 [Example 89, (R)-2,2-dimethyl-3-(4-methyl-3-(((S)-4-methyl-1,1-dioxido-4,5-dihydropyrido[2,3-f][1,2]thiazepin-2(3H)-yl)methyl)phenyl)-3-((1-propyl-1H-1,2,3-triazol-4-yl)methoxy)propanoic acid] | > 9.00
7 | CCCn1cc(CO[C@H](c2ccc(C)c(CN3C[C@@H](CC)Oc4ccccc4S3(=O)=O)c2)C(C)(C)C(=O)O)nn1 [Example 90, (R)-3-(3-(((R)-4-ethyl-1,1-dioxido-3,4-dihydro-2H-benzo[b][1,4,5]oxathiazepin-2-yl)methyl)-4-methylphenyl)-2,2-dimethyl-3-((1-propyl-1H-1,2,3-triazol-4-yl)methoxy)propanoic acid] | > 9.00
8 | CCn1cc(CO[C@H](c2ccc(C)c(CN(Cc3cccc(C(=O)O)c3)S(=O)(=O)c3ccccc3)c2)C(C)(C)C(=O)O)nn1 [Example 91, (R)-3-((N-(5-(2-carboxy-1-((1-ethyl-1H-1,2,3-triazol-4-yl)methoxy)-2-methylpropyl)-2-methylbenzyl)phenylsulfonamido)methyl)benzoic acid] | 5.00 to 6.00
9 | CCCn1cc(CO[C@H](c2ccc(C)c(CN(Cc3cccc(C(=O)O)c3)S(=O)(=O)c3cccc(C(=O)O)c3)c2)C(C)(C)C(=O)O)nn1 [Example 92, (R)-3-(N-(5-(2-carboxy-2-methyl-1-((1-propyl-1H-1,2,3-triazol-4-yl)methoxy)propyl)-2-methylbenzyl)-N-(3-carboxybenzyl)sulfamoyl)benzoic acid] | 5.00 to 6.00
10 | COCCn1cc(CO[C@H](c2ccc(C)c(CN(Cc3ccccn3)S(=O)(=O)c3cccc(C(=O)O)c3)c2)C(C)(C)C(=O)O)nn1 [Example 93, (R)-3-(N-(5-(2-carboxy-1-((1-(2-methoxyethyl)-1H-1,2,3-triazol-4-yl)methoxy)-2-methylpropyl)-2-methylbenzyl)-N-(pyridin-2-ylmethyl)sulfamoyl)benzoic acid] | 6.00 to 7.00
11 | COCCn1cc(CO[C@H](c2ccc(C)c(CN(Cc3ccccc3)S(=O)(=O)c3cccc(C(=O)O)c3)c2)C(C)(C)C(=O)O)nn1 [Example 94, (R)-3-(N-benzyl-N-(5-(2-carboxy-1-((1-(2-methoxyethyl)-1H-1,2,3-triazol-4-yl)methoxy)-2-methylpropyl)-2-methylbenzyl)sulfamoyl)benzoic acid] | 6.00 to 7.00
12 | CCn1cc(COC(c2ccc(C)c(CN(Cc3ccccc3)S(=O)(=O)c3cccc(C(=O)O)c3)c2)C(C)(C)C(=O)O)nn1 (stereo not shown) [Example 95, 3-(N-benzyl-N-(5-(2-carboxy-1-((1-ethyl-1H-1,2,3-triazol-4-yl)methoxy)-2-methylpropyl)-2-methylbenzyl)sulfamoyl)benzoic acid] | 6.00 to 7.00
13 | CCn1cc(COC(c2ccc(C)c(CN(C3CCCCC3)S(=O)(=O)c3cccc(OC)c3)c2)C(C)(C)C(=O)O)nn1 (stereo not shown) [Example 96, 3-(3-(((N-cyclohexyl-3-methoxyphenyl)sulfamido)methyl)-4-methylphenyl)-3-((1-ethyl-1H-1,2,3-triazol-4-yl)methoxy)-2,2-dimethylpropanoic acid] | 6.00 to 7.00
14 | CCn1cc(COC(c2ccc(C)c(CN(C3CCCCC3)S(=O)(=O)c3ccc(OC)cc3)c2)C(C)(C)C(=O)O)nn1 (stereo not shown) [Example 97, 3-(3-(((N-cyclohexyl-4-methoxyphenyl)sulfonamido)methyl)-4-methylphenyl)-3-((1-ethyl-1H-1,2,3-triazol-4-yl)methoxy)-2,2-dimethylpropanoic acid] | 6.00 to 7.00
15 | CCn1cc(COC(c2ccc(C)c(CN(C3CCCCC3)S(=O)(=O)c3ccccc3)c2)C(C)(C)C(=O)O)nn1 (stereo not shown) [Example 98, 3-(3-((N-cyclohexylphenylsulfonamido)methyl)-4-methylphenyl)-3-((1-ethyl-1H-1,2,3-triazol-4-yl)methoxy)-2,2-dimethylpropanoic acid] | 7.00 to 8.00
16 | CCn1cc(COC(c2ccc(C)c(CN(Cc3ccccc3)S(=O)(=O)c3ccccc3)c2)C(C)(C)C(=O)O)nn1 (stereo not shown) [Example 99, 3-(3-((N-benzylphenylsulfonamido)methyl)-4-methylphenyl)-3-((1-ethyl-1H-1,2,3-triazol-4-yl)methoxy)-2,2-dimethylpropanoic acid] | 7.00 to 8.00
17 | Cc1ccc(C(OCc2cn(CC3CCN(C(N)=O)CC3)nn2)C(C)(C)C(=O)O)cc1CN1C[C@@H](C)Oc2ccccc2S1(=O)=O (stereo partly drawn) [Example 100, 3-((1-((1-Carbamoylpiperidin-4-yl)methyl)-1H-1,2,3-triazol-4-yl)methoxy)-2,2-dimethyl-3-(4-methyl-3-(((R)-4-methyl-1,1-dioxido-3,4-dihydro-2H-benzo[b][1,4,5]oxathiazepin-2-yl)methyl)phenyl)propanoic acid] | 6.00 to 7.00
18 | Cc1ccc(C(OCc2c[nH]nn2)C(C)(C)C(=O)O)cc1CN1C[C@@H](C)Oc2ccccc2S1(=O)=O (stereo partly drawn) [Example 101, 3-((1H-1,2,3-triazol-4-yl)methoxy)-2,2-dimethyl-3-(4-methyl-3-(((R)-4-methyl-1,1-dioxido-3,4-dihydro-2H-benzo[b][1,4,5]oxathiazepin-2-yl)methyl)phenyl)propanoic acid] | 7.00 to 8.00
19 | Cc1ccc(C(OCc2cn(C3COC3)nn2)C(C)(C)C(=O)O)cc1CN1C[C@@H](C)Oc2ccccc2S1(=O)=O (stereo partly drawn) [Example 104, 2,2-Dimethyl-3-(4-methyl-3-(((R)-4-methyl-1,1-dioxido-3,4-dihydro-2H-benzo[b][1,4,5]oxathiazepin-2-yl)methyl)phenyl)-3-((1-(oxetan-3-yl)-1H-1,2,3-triazol-4-yl)methoxy)propanoic acid] | 7.00 to 8.00
20 | CC[C@@H]1CN(Cc2cc([C@H](OCc3cn(C4COC4)nn3)C(C)(C)C(=O)O)ccc2C)S(=O)(=O)c2ccccc2O1 [Example 105] | 8.00 to 9.00
21 | CC[C@@H]1CN(Cc2cc(C(OCc3cn(CCOC)nn3)C(C)(C)C(=O)O)ccc2C)S(=O)(=O)c2ccccc2O1 (stereo partly drawn) [Example 106, 3-(3-(((R)-4-ethyl-1,1-dioxido-3,4-dihydro-2H-benzo[b][1,4,5]oxathiazepin-2-yl)methyl)-4-methylphenyl)-3-((1-(2-methoxyethyl)-1H-1,2,3-triazol-4-yl)methoxy)-2,2-dimethylpropanoic acid] | > 9.00
22 | CC[C@@H]1CN(Cc2cc([C@H](OCc3cn(CCOCCOC)nn3)C(C)(C)C(=O)O)ccc2C)S(=O)(=O)c2ccccc2O1 [Example 107, 3-(3-(((R)-4-ethyl-1,1-dioxido-3,4-dihydro-2H-benzo[b][1,4,5]oxathiazepin-2-yl)methyl)-4-methylphenyl)-3-((1-(2-(2-methoxyethoxy)ethyl)-1H-1,2,3-triazol-4-yl)methoxy)-2,2-dimethylpropanoic acid] | > 9.00
23 | CC[C@@H]1CN(Cc2cc([C@@H](OCc3cn(C)nn3)C(C)(C)C(=O)O)ccc2C)Cc2ncccc2O1 [Example 108, (R)-3-(3-(((R)-2-Ethyl-2,3-dihydropyrido[2,3-f][1,4]oxazepin-4(5H)-yl)methyl)-4-methylphenyl)-2,2-dimethyl-3-((1-methyl-1H-1,2,3-triazol-4-yl)methoxy)propanoic acid Hydrochloride] | 7.00 to 8.00
24 | Cc1ccc([C@@H](OCc2cn(C)nn2)C(C)(C)C(=O)O)cc1CN1Cc2ncccc2O[C@H](C(C)C)C1 [Example 109, (R)-3-(3-(((R)-2-isopropyl-2,3-dihydropyrido[2,3-b][1,4]-oxazepin-4(5H)-yl)methyl)-4-methylphenyl)-2,2-dimethyl-3-((1-methyl-1H-1,2,3-triazol-4-yl)methoxy)propanoic acid] | 7.00 to 8.00
25 | CC[C@@H]1CN(Cc2cc([C@@H](OCc3cn(C)nn3)C(C)(C)C(=O)O)ccc2C)Cc2nc(C)ccc2O1 [Example 110, (R)-3-(3-(((R)-2-Ethyl-7-methyl-2,3-dihydropyrido[2,3-f][1,4]oxazepin-4(5H)-yl)methyl)-4-methylphenyl)-2,2-dimethyl-3-((1-methyl-1H-1,2,3-triazol-4-yl)methoxy)propanoic acid trifluoroacetate] | 8.00 to 9.00
